Tests used:
Pgp = target: T1, Pgp (Homo sapiens, UniProt P08183); experiment: Pgp inhibition, Calcein AM in MDCKII cells; format: cell-based; conditions: mean ± SD of 3 independent studies in duplicate, tested 0.14–100 µM
T1 construct: host or cells: MDCKII
Excerpt: Chinese Hamster Ovary (CHO) cells were obtained from Professor B. Stieger’s laboratory at University of Zurich, Zurich, Switzerland. Madin-Darby Canine Kidney strain II (MDCKII) cells were obtained from Nederlands Kanker Instituut (NKI), Amsterdam, Netherlands. NTCP-CHO cells, BSEP and MRP2 membrane vesicles were developed and validated at Solvo Biotechnology, Budaors, Hungary.
MDCKII cells were maintained in DMEM with sodium pyruvate, Glutmax, 1% Penicillin/Streptomycin and 10% FBS in an incubator set at 37°C, 90% humidity and 5% CO2. MDCKII cells were seeded in 96-well black cell culture plates with clear bottoms at a density of 5×10^4 cells/well for Pgp and 2×10^4 cells/well for BCRP and grown to confluence. For the Pgp assay, test compounds were serially diluted in DMSO and then added into in cell culture medium (without FBS) containing 10 µM Calcein AM and incubated for 1 h. Following the removal of media containing Calcein AM and test compound, cells were washed five times with […] phosphate buffered saline containing magnesium and calcium (PBS). Wells were analyzed for Calcein AM fluorescence at an excitation of 494 nm and an emission of 517 nm. For the BCRP assay, test compounds were serially diluted DMSO and then spiked in cell culture medium (without FBS) containing 1 µM pheophorbide a (PhA) and incubated for 18 hours with MDCKII-ABCG2 cells. Following the removal of media containing PhA and test compound, cells were then washed five times with PBS. Wells were analyzed for PhA fluorescence at an excitation of 415 nm and an emission of 675 nm.
All assays were performed in duplicate. IC50 was defined as the test article concentration needed to inhibit the maximal transporter specific accumulation by 50%. IC50 values were calculated using non-linear fitting of % inhibition versus concentration to a sigmoidal curve with a variable Hill Coefficient using GraphPad Prism 5 (GraphPad Software Inc., San Diego, CA).

[1] = tested on: sandwich-cultured human hepatocytes; experiment: Hepatic disposition (intracellular accumulation) of ERAs in sandwich-cultured human hepatocytes; format: in vitro ADME; conditions: sandwich-cultured human hepatocytes, 1, 10 and 100 µM, 10 min, n = 3 donors
Description: Sandwich-cultured human hepatocytes were obtained from Celsis/IVT (Baltimore, MD) or Life Technologies (Durham, NC). Donors were male (n = 3) and female (n = 1) between the ages of 31 and 62 years old. Hepatic uptake, biliary excretion and in vitro biliary clearance (Clb) were determined using the B-CLEAR® hepatocyte sandwich culture model as described by Liu et al., 1999 [34]. In this system, hepatocytes form functional bile canalicular networks while maintaining the expression and function of key uptake and efflux transporters. The canalicular system of bile pockets remains separate from the cellular culture media due to tight junctions between cells. The integrity of these tight junctions is maintained in the presence of calcium (Plus (+) buffer) while in the absence of calcium (Minus (−) buffer), these tight junctions open and release the contents of the canalicular network into the media.
Incubation solutions containing ERA (1, 10 and 100 µM) were prepared in Plus (+) buffer. Cell culture medium was removed from the wells and the cells were washed twice with Plus (+) or Minus (−) buffer. The wash solutions were then removed and replaced with fresh Plus (+) or Minus (−) buffer. The cells were conditioned for 10 min at 37°C. After the 10 min exposure, the buffer solutions were removed and replaced with the incubation solutions and incubated for 10 min at 37°C. Following 10 min incubation, the incubation solutions were removed and the cells were then washed three times with ice-cold Plus (+) Buffer. The plates were frozen at −80°C until processed for bioanalysis.
Study samples were stored in their original 24-well plates at −80°C until prepared for analysis. A volume of 500 µL of cell lysis solution (70∶30 methanol:water) containing 25 nM internal standard was added to each well and mixed for 20 min of mixing. […] Prepared samples were filtered and analyzed by LC-MS/MS using a Shimadzu binary HPLC system (Columbia, MD) and tandem mass spectrometry using Thermo Electron TSQ® Quantum Discovery MAX™ (Waltham, MA) with an Ion Max ESI source operating in negative ion electrospray ionization mode. Results for unknowns and QCs were calculated using a standard curve based on an internal standard processing method.
Data calculations were performed using Microsoft Excel, 2010 with all values reported as mean ± standard deviation (SD). […] All mass values were normalized to mg protein by taking the average protein mass in the taurocholate plate determined using a BCA protein assay (Pierce Biotechnology, Rockford, IL). Cellular accumulation determined in Minus (−) buffer (Accumulation Minus (−) Buffer) represents the total mass of analyte inside the hepatocyte at the end of the incubation time period. […]

T1 sequence (P08183 whole entry): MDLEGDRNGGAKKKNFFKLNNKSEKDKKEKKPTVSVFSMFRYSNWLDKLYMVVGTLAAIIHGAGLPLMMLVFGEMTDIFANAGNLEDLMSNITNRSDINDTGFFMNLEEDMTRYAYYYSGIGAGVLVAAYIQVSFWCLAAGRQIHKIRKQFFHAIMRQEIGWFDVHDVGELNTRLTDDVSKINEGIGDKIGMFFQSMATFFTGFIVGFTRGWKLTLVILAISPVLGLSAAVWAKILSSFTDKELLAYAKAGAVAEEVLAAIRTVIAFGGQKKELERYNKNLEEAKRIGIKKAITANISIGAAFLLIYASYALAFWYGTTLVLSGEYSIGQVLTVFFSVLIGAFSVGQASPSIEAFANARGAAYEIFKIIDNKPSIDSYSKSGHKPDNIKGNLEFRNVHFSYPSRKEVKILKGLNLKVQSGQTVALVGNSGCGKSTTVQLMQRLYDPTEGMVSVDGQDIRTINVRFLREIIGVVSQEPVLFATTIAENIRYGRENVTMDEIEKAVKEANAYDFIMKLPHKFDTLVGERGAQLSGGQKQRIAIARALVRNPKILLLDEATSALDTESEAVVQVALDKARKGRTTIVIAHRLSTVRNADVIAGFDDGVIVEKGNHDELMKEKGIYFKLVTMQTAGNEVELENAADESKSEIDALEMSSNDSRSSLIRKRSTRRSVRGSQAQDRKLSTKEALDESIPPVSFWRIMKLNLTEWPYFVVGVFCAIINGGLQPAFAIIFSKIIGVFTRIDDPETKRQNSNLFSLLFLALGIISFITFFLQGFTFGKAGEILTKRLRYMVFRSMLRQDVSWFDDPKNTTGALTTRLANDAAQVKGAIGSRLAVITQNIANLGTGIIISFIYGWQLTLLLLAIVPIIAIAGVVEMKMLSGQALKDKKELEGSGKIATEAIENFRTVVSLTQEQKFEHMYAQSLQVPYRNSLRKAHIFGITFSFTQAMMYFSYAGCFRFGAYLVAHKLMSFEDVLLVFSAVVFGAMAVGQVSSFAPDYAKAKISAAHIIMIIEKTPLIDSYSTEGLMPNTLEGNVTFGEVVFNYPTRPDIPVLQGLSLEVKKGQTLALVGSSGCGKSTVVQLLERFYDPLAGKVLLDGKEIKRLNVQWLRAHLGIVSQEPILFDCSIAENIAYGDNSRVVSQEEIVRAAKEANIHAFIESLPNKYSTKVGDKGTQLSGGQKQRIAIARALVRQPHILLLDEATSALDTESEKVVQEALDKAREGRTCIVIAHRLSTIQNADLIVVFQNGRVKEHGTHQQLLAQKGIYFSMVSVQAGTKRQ

SMILES | IC50 (Pgp) | hepatocyte accumulation relative to the extracellular test concentration [1] | hepatocyte accumulation relative to the extracellular test concentration ([1]; listed as Macitentan)
COC(c1ccccc1)(c1ccccc1)[C@H](Oc1nc(C)cc(C)n1)C(=O)O [ambrisentan] | > 100 µM | – | –
COc1ccccc1Oc1c(NS(=O)(=O)c2ccc(C(C)(C)C)cc2)nc(-c2ncccn2)nc1OCCO [bosentan] | > 100 µM | ~20 x | –
CCCNS(=O)(=O)Nc1ncnc(OCCOc2ncc(Br)cn2)c1-c1ccc(Br)cc1 [macitentan] | 64 ± 15 µM | > 100 x | ~100 x
Cc1cc2c(cc1CC(=O)c1sccc1S(=O)(=O)Nc1onc(C)c1Cl)OCO2 [sitaxsentan] | – | ~40 x | –

From publication PMC3907537, “Evaluation of the Endothelin Receptor Antagonists Ambrisentan, Bosentan, Macitentan, and Sitaxsentan as Hepatobiliary Transporter Inhibitors and Substrates in Sandwich-Cultured Human Hepatocytes” (PLoS ONE, 2014)
